# Reference: patent publication US12358907B2, “Substituted pyrrolidine amides III” (GRÜNENTHAL GMBH, priority 2019, dated 2025)
# Molecular target: glucocorticoid receptor (GAL4 DBD-GR) (Homo sapiens (Human), UniProt P04150)
# Assay: GR cell-based assays (GRE agonist / GRE antagonist), CHO-Gal4/GR luciferase reporter
# Conditions: read-out: IC50 or EC50
# Excerpt: Potential selective glucocorticoid receptor modulators of this intervention can be tested for modulation of the activity of the glucocorticoid receptor using cell-based assays. These assays involve a Chinese hamster ovary (CHO) cell line which contains fragments of the glucocorticoid receptor as well as fusion proteins. The glucocorticoid receptor fragments used are capable of binding the ligand (e.g. beclomethasone) to identify molecules that compete for binding with glucocorticoid receptor ligands. In more detail, the glucocorticoid receptor ligand binding domain is fused to the DNA binding domain (DBD) of the transcription factor GAL4 (GAL4 DBD-GR) and is stably integrated into a CHO cell line containing a GAL4-UAS-Luciferase reporter construct. […] After cell lysis the luminescence that is produced by luciferase after addition of the substrate is detected and EC50 or IC50 values can be calcuated. Engagement of molecules which induce gene expression via glucocortocoid receptor binding to the DNA leads to expression of the luciferase gene under the control of the fusion protein GAL4 DBD-GR and therefore to a dose-dependent increase of the luminescence signal. Binding of molecules which repress beclomethasone-induced gene expression of the luciferase gene under the control of the fusion protein GAL4 DBD-GR leads to a dose-dependent reduction of the luminescence signal.
# The reporter cell line CHO-Gal4/GR consisted of a chinese hamster ovary (CHO) cell line (Leibniz Institute DSMZ—German Collection of Microorganisms and Cell Cultures GmbH: ACC-110) containing a firefly luciferase gene under the control of the GR ligand binding domain fused to the DNA binding domain (DBD) of GAL4 (GAL4 DBD-GR) stably integrated into CHO cells. This cell line was established by stable transfection of CHO cells with a GAL4-UAS-Luciferase reporter construct. In a subsequent step the ligand binding domain of the GR cloned into pIRES2-EGFP-GAL4 containing the DNA binding domain of GAL4 from pFA-AT2 was transfected. This fusion construct activated firefly luciferase expression under the control of a multimerized GAL4 upstream activation sequence (UAS). The signal of the emitted luminescence was recorded by the FLIPR^TETRA. This allowed for specific detection of ligand-induced activation of the GR and therefore for the identification of compounds with agonistic properties. The GAL4/UAS reporter was premixed with a vector that constitutively expressed Renilla luciferase, which served as an internal positive control for transfection efficiency.
# The complete culture medium for the assay was: • DMEM F-12 (1:1) MIXTURE (LONZA cat. No: BE04-687F/U1) 500 mL • 5 mL of 100 mM Sodium Pyruvate (LONZA cat. No: BE12-115E) • 25 mL of 7.5% Sodium Bicarbonate (LONZA cat. No BE17-613E) • 6.5 mL of 1 M Hepes (LONZA cat. No: BE17-737E) • 5 mL of 100× Penicillin/Streptomycin (LONZA cat. No DE17-602E) • 50 mL of Fetal Bovine Serum (Euroclone cat. No ECS 0180L) • 0.25 mL of 10 mg/mL Puromycin (InvivoGen cat.: ant-pr-1) • 0.5 mL of 100 mg/mL Zeocin (InvivoGen cat.: ant-zn-1)
# Cryo-preserved CHO-Gal4/GR cells were suspended in complete medium and 5000 cells/25 μl/well were seeded into the wells of 384-well polystyrene assay plates (Thermo Scientific, cat. #4332) and cultured at 37° C., 5% CO2 and 95% humidity. After 24 hours growth medium was carefully removed and replaced by 30 μl Opti-MEM (GIBCO, cat. #31985062) as assay buffer. To test the compounds an 8-point half-log compound dilution curve was generated in 100% DMSO starting from a 2 mM stock and compounds were then diluted 1:50 in Opti-MEM. 10 μl of compounds were then added to the wells containing 30 μl Opti-MEM resulting in a final assay concentration range from 10 μM to 0.003 μM in 0.5% DMSO. Compounds were tested at 8 concentrations in quadruplicate data points. […] Finally, cells were lysed with 20 μl of Triton/Luciferin solution and the signal of the emitted luminescence was recorded at the FLIPR^TETRA for 2 minutes. […]
# glucocorticoid receptor (GAL4 DBD-GR), sequence (P04150 524-758): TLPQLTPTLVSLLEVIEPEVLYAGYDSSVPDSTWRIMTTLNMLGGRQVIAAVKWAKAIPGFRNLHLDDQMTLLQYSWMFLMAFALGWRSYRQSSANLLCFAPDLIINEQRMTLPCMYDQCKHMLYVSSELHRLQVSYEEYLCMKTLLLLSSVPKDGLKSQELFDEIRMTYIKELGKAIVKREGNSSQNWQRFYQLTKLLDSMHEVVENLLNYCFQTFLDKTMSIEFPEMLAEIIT
row,SMILES,IC50 [nM]
1,"Cc1cccc([C@@H]2[C@@H](NC(=O)c3ccn(C)n3)[C@H](C)C(=O)N2c2ccc3c(cnn3-c3ccc(F)cc3)c2)c1 (racemic) [Example 75, N-[rac-(2R,3S,4S)-1-[1-(4-Fluorophenyl)-1H-indazol-5-yl]-4-methyl-2-m-tolyl-5-oxo-pyrrolidin-3-yl]-1-methyl-1H-pyrazole-3-carboxylic acid amide]",< 100
2,"Cc1cccc([C@@H]2[C@@H](NS(C)(=O)=O)[C@@H](C)C(=O)N2c2ccc3c(cnn3-c3ccc(F)cc3)c2)c1 (racemic) [Example 76, N-[rac-(2R,3S,4R)-1-[1-(4-Fluorophenyl)-1H-indazol-5-yl]-4-methyl-2-m-tolyl-5-oxo-pyrrolidin-3-yl]-methanesulfonic acid amide]",< 100
3,"Cc1cccc([C@@H]2[C@@H](NC(=O)C(C)(F)F)[C@@H](C)C(=O)N2c2ccc3c(cnn3-c3ccc(F)cc3)c2)c1 (racemic) [Example 77, 2,2-Difluoro-N-[rac-(2R,3S,4R)-1-[1-(4-fluorophenyl)-1H-indazol-5-yl]-4-methyl-2-m-tolyl-5-oxo-pyrrolidin-3-yl]-propionamide]",< 100
4,"COc1ccc([C@@H]2[C@@H](NC(=O)c3scnc3C)[C@H](C)C(=O)N2c2ccc3c(cnn3-c3ccc(F)cc3)c2)cc1 (racemic) [Example 82, N-[rac-(2R,3S,4S)-1-[1-(4-Fluorophenyl)-1H-indazol-5-yl]-2-(4-methoxyphenyl)-4-methyl-5-oxo-pyrrolidin-3-yl]-4-methyl-thiazole-5-carboxylic acid amide]",100 to 1000

# Other lines, results leading:
row,IC50 [nM],SMILES
1,< 100,"COc1ccc([C@@H]2[C@@H](NC(=O)c3ccn(C)n3)[C@H](C)C(=O)N2c2ccc3c(cnn3-c3ccc(F)cc3)c2)cc1 (racemic) [Example 83, N-[rac-(2R,3S,4S)-1-[1-(4-Fluorophenyl)-1H-indazol-5-yl]-2-(4-methoxyphenyl)-4-methyl-5-oxo-pyrrolidin-3-yl]-1-methyl-1H-pyrazole-3-carboxylic acid amide]"
2,100 to 1000,"COc1ccc([C@@H]2[C@@H](NC(=O)c3cccnc3)[C@H](C)C(=O)N2c2ccc3c(cnn3-c3ccc(F)cc3)c2)cc1 (racemic) [Example 84, N-[rac-(2R,3S,4S)-1-[1-(4-Fluorophenyl)-1H-indazol-5-yl]-2-(4-methoxyphenyl)-4-methyl-5-oxo-pyrrolidin-3-yl]-pyridine-3-carboxylic acid amide]"
3,100 to 1000,"COc1ccc([C@@H]2[C@@H](NC(=O)c3ncccn3)[C@H](C)C(=O)N2c2ccc3c(cnn3-c3ccc(F)cc3)c2)cc1 (racemic) [Example 85, N-[rac-(2R,3S,4S)-1-[1-(4-Fluorophenyl)-1H-indazol-5-yl]-2-(4-methoxyphenyl)-4-methyl-5-oxo-pyrrolidin-3-yl]-pyrimidine-2-carboxylic acid amide]"
4,< 100,"C[C@H]1C(=O)N(c2ccc3c(cnn3-c3ccc(F)cc3)c2)[C@H](c2ccccc2Cl)[C@H]1NS(C)(=O)=O (racemic) [Example 86, N-[rac-(2R,3S,4R)-2-(2-Chlorophenyl)-1-[1-(4-fluorophenyl)-1H-indazol-5-yl]-4-methyl-5-oxo-pyrrolidin-3-yl]-methanesulfonic acid amide]"
5,< 100,"C[C@H]1C(=O)N(c2ccc3c(cnn3-c3ccc(F)cc3)c2)[C@H](c2ccccc2Cl)[C@H]1NC(=O)c1cccnc1 (racemic) [Example 87, N-[rac-(2R,3S,4R)-2-(2-Chlorophenyl)-1-[1-(4-fluorophenyl)-1H-indazol-5-yl]-4-methyl-5-oxo-pyrrolidin-3-yl]-pyridine-3-carboxylic acid amide]"
6,< 100,"C[C@H]1C(=O)N(c2ccc3c(cnn3-c3ccc(F)cc3)c2)[C@H](c2ccccc2Cl)[C@H]1NC(=O)c1ncccn1 (racemic) [Example 88, N-[rac-(2R,3S,4R)-2-(2-Chlorophenyl)-1-[1-(4-fluorophenyl)-1H-indazol-5-yl]-4-methyl-5-oxo-pyrrolidin-3-yl]-pyrimidine-2-carboxylic acid amide]"
